# Measured values: patent publication EP4682144A1, “SOLID FORM OF PYRROLIDONE DERIVATIVE AS GLUCOKINASE ACTIVATOR” (Hua Medicine (Shanghai) Ltd., priority 2023, dated 2024)
# Assays:
# Assay type in all cases: physicochemical
# [1] = Preliminary solubility test in solvents at room temperature; conditions: listed as crystal form A of the free state
# Experimental: Table 10 Solubility range of the starting material sample at room temperature
# The solubility range in the corresponding solvent was calculated based on the mass of the sample and the volume of the added solvent, as shown in Table 28. The data were used as a base to guide the selection of solvent in screening tests. Table 28 Preliminary solubility of crystal form A of the free state at room temperature
# The solubility range in the corresponding solvent was calculated based on the mass of the sample and the volume of the added solvent, as shown in Table 35. The data were used as a base to guide the selection of solvent in the screening tests.
# [2] = Dynamic vapour sorption (DVS) test
# Experimental: A certain amount of powder was taken and put into a sample pan, and hygroscopicity of the sample was evaluated with DVS according to the following instrument method:
# [3] = Dissolution stability in different pH and biologically relevant media (XRPD before and after); conditions: pH 1.0, 1.2, 3.0, 4.5, 5.0, 6.8, 7.0, 7.4, 9.0, FaSSGF (pH 1.6), FaSSIF (pH 6.5), FeSSIF (pH 5.0)
# [4] = Forced degradation stability test (heat, humidity and heat, light)
# Experimental: Crystal form A of the free state was placed under the following different conditions for the forced degradation stability test: • About 10 mg of the sample powder was weighed into a vial and placed under the conditions of 50 °C, 80°C, and 40 °C/75%RH (unsealed) for 1 day, 2 weeks, and 4 weeks, respectively. And then, the thermal stability was evaluated. • About 10 mg of the sample powder was weighed and placed in a transparent vial, an amber vial, and a transparent vial sealed with aluminum foil, respectively. Those vials were placed in a light box for 10 days, with a total illumination of 1.2×10^6 Lux·hr and a near-UV energy not less than 200w·hr/m^2, for photostability evaluation.
# The samples were taken at each time point for HPLC and XRPD analysis to evaluate the chemical and physical stability.
# [5] = High-temperature stability test (60°C, HPLC)
# From the text: (§1) The resulting sample was sampled at day 6, day 14 and day 34 for HPLC analysis.
# [6] = High-humidity stability test (90% RH, HPLC)
# From the text: as §1
# [7] = Photostability test (direct sunlight, HPLC)
# From the text: The resulting sample was sampled at day 4 and day 15 for HPLC analysis.
smiles,measurement,setting,value
"CC(C)C[C@@H](C(=O)Nc1ccn(C[C@@H](O)COC(=O)c2cccnc2)n1)N1CC(Oc2ccccc2Cl)=CC1=O [Free state crystal form A, (R)-3-(3-((S)-2-(4-(2-chlorophenoxy)-2-oxo-2,5-dihydro-1H-pyrrol-1-yl)-4-methylpentanamido)-1H-pyrazol-1-yl)-2-hydroxypropyl nicotinate]",Solubility (mg/mL),"[1]; 1,4-Dioxane, room temperature",S>40.0 mg/mL
same,Solubility (mg/mL),"[1]; Acetone, room temperature",S>40.0 mg/mL
same,Solubility (mg/mL),"[1]; CHCl3, room temperature",S>40.0 mg/mL
same,Solubility (mg/mL),"[1]; DCM, room temperature",S>40.0 mg/mL
same,Solubility (mg/mL),"[1]; DMAc, room temperature",S>40.0 mg/mL
same,Solubility (mg/mL),"[1]; DMSO, room temperature",S>42.0 mg/mL
same,Solubility (mg/mL),"[1]; H2O, room temperature",S<1.0 mg/mL
same,Solubility (mg/mL),"[1]; MTBE, room temperature",S<1.0 mg/mL
same,Solubility (mg/mL),"[1]; MeOH, room temperature (25±3 °C)",S>42.0 mg/mL
same,Solubility (mg/mL),"[1]; NMP, room temperature",S>40.0 mg/mL
same,Solubility (mg/mL),"[1]; THF, room temperature",S>40.0 mg/mL
same,Solubility (mg/mL),"[1]; Toluene, room temperature",S<1.0 mg/mL
same,Solubility (mg/mL),"[1]; n-Heptane, room temperature",S<1.1 mg/mL
same,"Water sorption capacity at 80%RH, %","[2]; DVS, 25 °C, 80%RH",0.3556%
same,"Water sorption capacity at 90%RH, %","[2]; DVS, 25 °C, 90%RH",0.4782%
same,"Water sorption capacity at 95%RH, %","[2]; DVS, 25 °C, 95%RH",0.6525%
same,moisture-induced weight gain,[2]; relative humidity of 95%,less than 0.7%
same,moisture-induced weight gain,"[2]; relative humidity of less than or equal to 90%, listed as crystal form A of the free state",less than 0.5%
same,crystal form before and after solubility test (XRPD),[3],does not change
same,"Purity, %","[4]; 40°C/75%RH (unsealed), 2 weeks, HPLC",99.15%
same,"Purity, %","[4]; 40°C/75%RH (unsealed), 4 weeks, HPLC",99.15%
same,"Purity, %","[4]; 40°C/75%RH (unsealed), 24 hours, HPLC",99.09%
same,"Purity, %","[4]; 50°C, 2 weeks, HPLC",99.10%
same,"Purity, %","[4]; 50°C, 4 weeks, HPLC",99.11%
same,high-temperature and humidity-thermal stability,"[4]; 50 °C, 80°C, 40 °C/75%RH (unsealed)",excellent
same,crystalline form under forced degradation test conditions (XRPD),"[4]; 50 °C, 80°C, 40 °C/75%RH for 1 day, 2 weeks, 4 weeks, light box 10 days",does not change
same,"Purity, %","[4]; 50°C, 24 hours, HPLC",99.08%
same,"Purity, %","[4]; 80°C, 2 weeks, HPLC",99.12%
same,"Purity, %","[4]; 80°C, 4 weeks, HPLC",99.14%
same,"Purity, %","[4]; 80°C, 24 hours, HPLC",99.12%
same,"Purity, %","[4]; Light-amber vial, 10 days, light box, […]10^6 Lux·hr",99.17%
same,"Purity, %","[4]; Light-transparent vial sealed with aluminum foil, 10 days, light box, […]10^6 Lux·hr",99.17%
same,"Purity, %","[4]; Light-transparent vial, 10 days, light box, […]10^6 Lux·hr",99.10%
same,"Purity, %","[4]; Starting, 0h, HPLC",99.10%
same,effect of light on the stability,"[4]; light box 10 days, […]10^6 Lux·hr",no effect
same,Purity (Area%),[5]; 0h,98.17 Area%
same,stability at high temperature,[5]; 60°C for 14 days,still stable
same,Purity (Area%),"[5]; 60°C, Day 6, without cover",99.03 Area%
same,Purity (Area%),"[5]; 60°C, Day 14, without cover",99.11 Area%
same,Purity (Area%),[6]; 0 hour,98.17 Area%
same,stability at high humidity,[6]; 90% relative humidity for 14 days,still stable
same,Purity (Area%),"[6]; 90%RH, Day 6, without cover",98.99 Area%
same,Purity (Area%),"[6]; 90%RH, Day 14, without cover",99.09 Area%
same,Purity (Area%),[7]; 0 hour,98.17 Area%
same,Purity (Area%),"[7]; Photostability Day 4, direct sunlight",99.07 Area%
same,Purity (Area%),"[7]; Photostability Day 15, direct sunlight",99.10 Area%
same,stability under sunlight,[7]; sunlight for 15 days,still stable
